Source: patent US20160089410A1, “COMPOSITION FOR NOURISHING INJURED HUMAN TROPHOBLAST CELLS AND INHIBITING APOPTOSIS THEREIN” (priority 2014, published 2016)
Marks after values point to notes of the source that are not given here.

Legend:
Type in all cases: cell-based, human
Bax mRNA = test: Quantitative PCR assay on Bax mRNA; conditions: ΔΔCt, mifepristone induced model, time point not given
Source text: (§1) Hyperoside and asperosaponin are individual compounds isolated from herbal medicines cuscuta chinensis and taxillus sutchuenensis, respectively. Progesterone is a compound often used to prevent spontaneous abortion and was used in present invention as positive treatment control for comparison with of the novel composition of the present invention.
(§2) Design of primers: Based on search for the sequence of the target gene mRNA in GenBank, the following primers were designed: […]
(§3) Total RNA extraction: Cells 4×10^5 cells/ml were seeded in the 6-well plate, 1 ml per well, and incubated at 37° C., 5% CO2 for 48 h. Then, the cells were grouped and treated according to the experiment scheme (see above). Extraction was conducted at two time points: 24 h and 24-24 h (24 hours of agent treatment and 24 hours after removing the agent), according to the procedures described as follows:
(§4) Placed the cells in the 1.5 ml EP tube, add Trizol 1 ml, and mix by shaking. Add chloroform 0.2 ml, cover tightly, and shake vigorously for 15 s. Store it at 4° C. for 2-3 min, centrifugal at 4° C., 12000 rpm×15 min. Transfer the supernatant to a new 1.5 ml EP tube, add an equal volume of isopropanol, incubate at 4° C. for 10 min, and centrifuge 4° C., 12000 rpm×10 min. After discarding the supernatant, add 75% ethanol (containing DEPC water) to wash the precipitate once, centrifugal 4° C. 7500 rpm×5 min, and discard ethanol. Air or vacuum dry for 5-10 min (not completely dry), add DEPC water to dissolve RNA, store at −80° C. for further process.
(§5) Reverse transcription: In a sterile 0.2 ml centrifuge tubes, prepare the reaction according to the following:
(§6) Quantitative PCR:experimental design is in accordance with standard ΔΔCt analytical method. The experimental procedure is as follows:
(§7) (2) Prepare reaction mix (performed on ice):
(§8) (3) PCR reaction: using a standard three-step reaction procedure: […]

trophoblast cells [1] = test: MTT assay on cell proliferation in mifepristone induced trophoblast model; conditions: Blank = 1.0000
Method: as §1
The trophoblast cells (adjust to 1.5×10^4/ml) were seeded in wells on a 96-well plate, […]. After incubating for 48 hours at 37° C., 5% CO2, the cells were grouped and treated accordingly (see above). Assays were conducted after treatment for 24 h and 48 h according to the following procedure:
Add 10 μl 1×MTT (3-(4,5-dimethylthiazol-2-yl)-2,5-diphenyltetrazolium bromide) to the well and continue incubation at 37° C., 5% CO2 for 4 hours to reduce MTT to formazan. Remove the supernatant from the well and add to each well 150 μl DMSO (dimethylsulfoxide) to dissolve formazan. After shaking the 96 plate for 10 min to make crystals completely dissolved, determine the OD value at 490 nm with a enzyme immunoassay analyzer. The determination was repeated three times.

BcI-2/Bax = test: Western blot assay on Bcl-2/Bax expression ratio in trophoblastic cells; conditions: mifepristone induced model, Blank = 1.000
Method: Hyperoside and asperosaponin are individual compounds isolated from herbal medicines cuscuta chinensis and taxillus sutchuenensis, respectively.
(§9) Extraction of total cellular protein and cytoplasmic protein: The cells 4×10^5 cells/ml were seeded in the 6-well plate. After incubating at 37° C., 5% CO2 for 44 hours, the cells are grouped and treated according to the experiment scheme (see above). Extraction conducted at two treatment points: 24-24 h (treat with agent for 24 hours and continue incubation for 24 hours after removing the agent) and 24-48 h (treat with agent for 24 hours and continue incubation for 48 hours after removing the agent). The assays were conducted as follows:
(§10) At each predetermined time point, discard the culture medium, wash the cells three times with cold PBS solution, 3 min each time. After removing PBS, put the cells on ice. Add lysis buffer, 150 μl per well, and then place the cells on ice for 5 min, scrape the surface cells and transfer the cell lysate to an EP tube. Put the tube on ice for 30 min. After centrifuge (4° C., 12000 rpm/min, 15 min), transfer the supernatant to the EP tube and store it at −20° C. Determine the protein concentration with the BCA method and adjust the protein concentration to the same level. Add 3 μl 5× SDS-PAGE sampling buffer, denature at 100° C. for 5 min, and store the samples at −20° C. for Western Blotting. The Western Blotting procedure was conducted in a standard manner known in the art, description of which is omitted herewith for the sake of brevity.

β-HCG = test: Radioimmunoassay on HCG expression in cell supernatant; conditions: mifepristone induced model; duration of treatment 48 h
Method: as §1
The cells (4×10^5 cells/ml) were seeded in the 6-well plate, 1 ml per well, and incubated at 37° C., 5% CO2 for 48 hours. Then, the cells were grouped and treated accordingly (see above). After 48 hour treatment, cell supernatants were collected and sent to the Department of Nuclear Medicine, Guangzhou University of Traditional Chinese Medicine, for measuring HCG (human chorionic gonadotropin) via a routine radioimmunoassay procedure.

Caspase-9 mRNA = test: Quantitative PCR assay on Caspase-9 mRNA; conditions: ΔΔCt, mifepristone induced model, time point not given
Source text: as §1, §2, §3, §4, §5, §6, §7, §8

XIAP mRNA = test: Quantitative PCR assay on XIAP mRNA; conditions: ΔΔCt, mifepristone induced model, time point not given
Source text: as §1, §2, §3, §4, §5, §6, §7, §8

Bcl-2 mRNA = test: Quantitative PCR assay on Bcl-2 mRNA; conditions: ΔΔCt, mifepristone induced model, time point not given
Source text: as §1, §2, §3, §4, §5, §6, §7, §8

trophoblast cells [2] = test: Annexin V/PI flow cytometry assay on early stage apoptosis in Mifepristone-Trophoblast Cell Model; conditions: comparative study, mifepristone induced model
Method: For example, the effect of apoptotic mRNA expressions in trophoblastic cells treated by mifepristone for 24 hours is shown in FIG. 3.
The experimental data on the cell proliferation rate, early apoptosis rate, Caspase-3 protein expression and cell supernatants HCG level expression were then subject to stepwise regression analysis, canonical correlation analysis and result optimization analysis. From these analyses, it is concluded that the preferred ratio among X1:X2:X3:X4:X5 is 0.9:0.00342:0.09037:0.0795:0. […] The number means the percentage of the cells underwent apoptosis.
as §1
The cells 4×10^5 cells/ml were seeded in the 6-well plate, 1 ml per well and incubated at 37° C., 5% CO2 for 48 h. Then, the cells were grouped and treated accordingly (see above). The assays were conducted as follows:
At the end of the predetermined treatment, the cells were digested and spun down(2000 rpm×5 min centrifugation). Discard the medium, wash the cells twice with cold PBS (resuspension and then 2000 rpm×5 min centrifugation). Remove the supernatant and resuspend the cell in 400 μl 1×Annexin V binding solution. Then, add 5 μl AnnexinV-EGFP staining solution to the cell suspension and mix gently. Incubate the cells at 2-8° C. in dark for 15 minutes. Add 10 μl PI (propidium iodide) and mix gently and incubate the cells in dark at 2-8° C. for 5 min. Detection by flow cytometry was conducted within one hour. The detection was repeated three times.

Caspase-3 mRNA = test: Quantitative PCR assay on Caspase-3 mRNA; conditions: ΔΔCt, mifepristone induced model, time point not given
Source text: as §1, §2, §3, §4, §5, §6, §7, §8

Bcl-2 mRNA/Bax mRNA = test: Quantitative PCR assay, Bcl-2 mRNA/Bax mRNA ratio; conditions: ΔΔCt, mifepristone induced model, time point not given
Source text: as §1, §2, §3, §4, §5, §6, §7, §8

Bax = test: Western blot assay on Bax expression in trophoblastic cells; conditions: mifepristone induced model, Blank = 1.000
Method: as §1, §9, §10

Caspase-3 = test: Western blot assay on Caspase-3 expression in trophoblastic cells; conditions: mifepristone induced model, Blank = 1.000
Method: as §1, §9, §10

Caspase-9 = test: Western blot assay on Caspase-9 expression in trophoblastic cells; conditions: mifepristone induced model, Blank = 1.000
Method: as §1, §9, §10

XIAP = test: Western blot assay on XIAP expression in trophoblastic cells; conditions: mifepristone induced model, Blank = 1.000
Method: as §1, §9, §10

SMILES	BaxmRNA level (Bax mRNA)	cell proliferation rate as compared to the Blank (MTT) (trophoblast cells [1]; duration of treatment 24 h)	cell proliferation rate as compared to the Blank (MTT) (trophoblast cells [1]; duration of treatment 48 h)	BcI-2/Bax expression ratio, relative ratio of the proteins compared with Blank (BcI-2/Bax; 24 h)	β-HCG level in cell supernatant (β-HCG)	Caspase-9 mRNA level (Caspase-9 mRNA)	XIAPmRNA level (XIAP mRNA)	Bcl-2 mRNA level (Bcl-2 mRNA)	early stage apoptosis, percentage of cells underwent apoptosis (Annexin V FITC/PI) (trophoblast cells [2]; duration of treatment 24 h)	early stage apoptosis, percentage of cells underwent apoptosis (Annexin V FITC/PI) (trophoblast cells [2]; duration of treatment 48 h)	Caspase-3 mRNA level (Caspase-3 mRNA)	Bcl-2 mRNA/BaxmRNA (Bcl-2 mRNA/Bax mRNA)	BcI-2/Bax expression ratio, relative ratio of the proteins compared with Blank (BcI-2/Bax; 48 h)	Bax expression, relative amount of protein compared with Blank (Bax; 24 h)	Bax expression, relative amount of protein compared with Blank (Bax; 48 h)	Caspase-3 expression, relative amount of protein compared with Blank (Caspase-3; 24 h)	Caspase-3 expression, relative amount of protein compared with Blank (Caspase-3; 48 h)	Caspase-9 expression, relative amount of protein compared with Blank (Caspase-9; 24 h)	Caspase-9 expression, relative amount of protein compared with Blank (Caspase-9; 48 h)	XIAP expression, relative amount of protein compared with Blank (XIAP; 24 h)	also measured
CC(=O)[C@H]1CC[C@H]2[C@@H]3CCC4=CC(=O)CC[C@]4(C)[C@H]3CC[C@]12C [Positive Control, progesterone]	0.442 ± 0.442^ΔΔ	0.805 ± 0.030	0.825 ± 0.061	0.537 ± 0.051	1.067 ± 0.038*^Δ MIU/ML	1.286 ± 0.780	1.037 ± 0.425	2.971 ± 2.839	17.400 ± 1.229 **^ΔΔ %	16.367 ± 1.447 %	3.089 ± 1.778^ΔΔ	7.351 ± 6.001									
CC1(C)CC[C@]2(C(=O)O[C@@H]3O[C@H](CO[C@@H]4O[C@H](CO)[C@@H](O)[C@H](O)[C@H]4O)[C@@H](O)[C@H](O)[C@H]3O)CC[C@]3(C)C(=CC[C@@H]4[C@@]5(C)CC[C@H](O[C@@H]6OC[C@H](O)[C@H](O)[C@H]6O)[C@@](C)(CO)[C@@H]5CC[C@]43C)[C@@H]2C1 [Asperosaponin, asperosaponin]	3.181 ± 1.576	0.787 ± 0.086	0.809 ± 0.019	1.905 ± 0.297**^ΔΔ∇∇▴▴	0.870 ± 0.026 MIU/ML	1.240 ± 0.945	1.253 ± 1.540	4.908 ± 3.037	16.067 ± 2.974 **^ΔΔ %	15.933 ± 3.742 %	2.783 ± 0.541	1.88 ± 1.196	1.503 ± 0.454	1.503 ± 0.180^ΔΔ▾▾	1.804 ± 0.558	1.372 ± 0.338^Δ	1.508 ± 0.217*^ΔΔ▴▴□	1.962 ± 0.273^Δ	1.887 ± 0.742	2.127 ± 0.421	XIAP expression, relative amount of protein compared with Blank (XIAP; 48 h): 1.706 ± 0.492
O=c1c(O[C@@H]2O[C@H](CO)[C@H](O)[C@H](O)[C@H]2O)c(-c2ccc(O)c(O)c2)oc2cc(O)cc(O)c12 [Hyperoside, hyperoside]	2.469 ± 1.058^Δ	0.788 ± 0.072	0.869 ± 0.029	1.544 ± 0.726^ΔΔ∇∇	1.377 ± 0.142 MIU/ML	3.512 ± 3.828	1.315 ± 0.706	2.726 ± 1.419	16.367 ± 1.942 **^ΔΔ %	15.633 ± 2.136 %	4.640 ± 1.865^Δ	1.470 ± 1.321	0.518 ± 0.186	1.687 ± 0.519*^ΔΔ▴▴▾▾	2.544 ± 0.383	1.847 ± 0.123	1.648 ± 0.206**^Δ▴	2.079 ± 0.267^Δ	2.221 ± 0.651	1.528 ± 0.317	XIAP expression, relative amount of protein compared with Blank (XIAP; 48 h): 1.673 ± 0.768
